Data published in ChEMBL document CHEMBL3885881, “DrugMatrix”.

Organism: Rattus norvegicus
Experiment: DrugMatrix - Regimen: Daily Repeat
Type: toxicity, organism-based, Sprague-Dawley
Set-up: regimen Daily Repeat, gender Male, age 6-8 weeks
Settings: in vivo, po, route oral GAVAGE, vehicle .5 % CMC; for ABSOLUTE BASOPHIL / ABSOLUTE EOSINOPHIL / ABSOLUTE LYMPHOCYTE / ABSOLUTE MONOCYTE / ABSOLUTE SEGMENTED NEUTROPHIL / BASOPHIL / EOSINOPHIL / ERYTHROCYTE COUNT / HEMATOCRIT / HEMOGLOBIN / LEUKOCYTE COUNT / LYMPHOCYTE / MEAN CORPUSCULAR HEMOGLOBIN / MEAN CORPUSCULAR HEMOGLOBIN CONCENTRATION / MEAN CORPUSCULAR VOLUME / MONOCYTE / NEUTROPHIL / NUCLEATED RED BLOOD CELLS / PLATELET COUNT: tissue Blood; for ALANINE AMINOTRANSFERASE / ALBUMIN / ALKALINE PHOSPHATASE / ASPARTATE AMINOTRANSFERASE / BLOOD UREA NITROGEN / CARBON DIOXIDE / CHLORIDE / CHOLESTEROL / CREATINE PHOSPHOKINASE / CREATININE / GLUCOSE / LACTATE DEHYDROGENASE / LIPASE / PHOSPHORUS / POTASSIUM / SODIUM / TOTAL BILIRUBIN / TOTAL PROTEIN / URIC ACID: tissue Plasma
[1] = 200 mg/kg, 72 h, dose level Low, time 3 day
[2] = 200 mg/kg, 120 h, dose level Low, time 5 day
[3] = 1200 mg/kg, 72 h, dose level High, time 3 day
[4] = 1200 mg/kg, 120 h, dose level High, time 5 day

Structure (SMILES): COc1cc(C(=O)NC2CCCNC2)cc(OC)c1OC (configuration not stated) [TROXIPIDE]
- ABSOLUTE BASOPHIL [1]: 0 CELLS/uL
- ABSOLUTE EOSINOPHIL [1]: 136.33 CELLS/uL
- ABSOLUTE LYMPHOCYTE [1]: 11684 CELLS/uL
- ABSOLUTE MONOCYTE [1]: 203.67 CELLS/uL
- ABSOLUTE SEGMENTED NEUTROPHIL [1]: 809.33 CELLS/uL
- BASOPHIL [1]: 0%
- EOSINOPHIL [1]: 1%
- ERYTHROCYTE COUNT [1]: 5.48 x10E6/uL
- HEMATOCRIT [1]: 34.2%
- HEMOGLOBIN [1]: 12.97 G/DL
- LEUKOCYTE COUNT [1]: 12.83 x10E3/uL
- LYMPHOCYTE [1]: 91%
- MEAN CORPUSCULAR HEMOGLOBIN [1]: 23.67 pg
- MEAN CORPUSCULAR HEMOGLOBIN CONCENTRATION [1]: 37.9 G/DL
- MEAN CORPUSCULAR VOLUME [1]: 62.43 fL
- MONOCYTE [1]: 1.67%
- NEUTROPHIL [1]: 6.33%
- NUCLEATED RED BLOOD CELLS [1]: 0.33 /100WBC
- PLATELET COUNT [1]: 1247.33 x10E3/uL
- ALANINE AMINOTRANSFERASE [1]: 38.67 u/L
- ALBUMIN [1]: 4.37 G/DL
- ALKALINE PHOSPHATASE [1]: 413.67 u/L
- ASPARTATE AMINOTRANSFERASE [1]: 80 u/L
- BLOOD UREA NITROGEN [1]: 14 mg/dL
- CARBON DIOXIDE [1]: 26.33 mmol/L
- CHLORIDE [1]: 106 MEQ/L
- CHOLESTEROL [1]: 67 mg/dL
- CREATINE PHOSPHOKINASE [1]: 457.67 u/L
- CREATININE [1]: 0.16 mg/dL
- GLUCOSE [1]: 165 mg/dL
- LACTATE DEHYDROGENASE [1]: 90.67 u/L
- LIPASE [1]: 9 u/L
- PHOSPHORUS [1]: 13.6 mg/dL
- POTASSIUM [1]: 6.02 MEQ/L
- SODIUM [1]: 146.67 MEQ/L
- TOTAL BILIRUBIN [1]: 0.23 mg/dL
- TOTAL PROTEIN [1]: 5.87 G/DL
- URIC ACID [1]: 1.57 mg/dL
- ABSOLUTE BASOPHIL [2]: 0 CELLS/uL
- ABSOLUTE EOSINOPHIL [2]: 142.33 CELLS/uL
- ABSOLUTE LYMPHOCYTE [2]: 13091.33 CELLS/uL
- ABSOLUTE MONOCYTE [2]: 94.33 CELLS/uL
- ABSOLUTE SEGMENTED NEUTROPHIL [2]: 905.33 CELLS/uL
- BASOPHIL [2]: 0%
- EOSINOPHIL [2]: 1%
- ERYTHROCYTE COUNT [2]: 5.5 x10E6/uL
- HEMATOCRIT [2]: 35.17%
- HEMOGLOBIN [2]: 13.37 G/DL
- LEUKOCYTE COUNT [2]: 14.23 x10E3/uL
- LYMPHOCYTE [2]: 92%
- MEAN CORPUSCULAR HEMOGLOBIN [2]: 24.33 pg
- MEAN CORPUSCULAR HEMOGLOBIN CONCENTRATION [2]: 38.03 G/DL
- MEAN CORPUSCULAR VOLUME [2]: 63.97 fL
- MONOCYTE [2]: 0.67%
- NEUTROPHIL [2]: 6.33%
- NUCLEATED RED BLOOD CELLS [2]: 0 /100WBC
- PLATELET COUNT [2]: 1300.67 x10E3/uL
- ALANINE AMINOTRANSFERASE [2]: 40.33 u/L
- ALBUMIN [2]: 4.33 G/DL
- ALKALINE PHOSPHATASE [2]: 383 u/L
- ASPARTATE AMINOTRANSFERASE [2]: 84.33 u/L
- BLOOD UREA NITROGEN [2]: 16.67 mg/dL
- CARBON DIOXIDE [2]: 24.67 mmol/L
- CHLORIDE [2]: 109 MEQ/L
- CHOLESTEROL [2]: 69 mg/dL
- CREATINE PHOSPHOKINASE [2]: 241.67 u/L
- CREATININE [2]: 0.18 mg/dL
- GLUCOSE [2]: 177.67 mg/dL
- LACTATE DEHYDROGENASE [2]: 230 u/L
- LIPASE [2]: 9 u/L
- PHOSPHORUS [2]: 14 mg/dL
- POTASSIUM [2]: 5.49 MEQ/L
- SODIUM [2]: 147.33 MEQ/L
- TOTAL BILIRUBIN [2]: 0.23 mg/dL
- TOTAL PROTEIN [2]: 6.57 G/DL
- URIC ACID [2]: 1.8 mg/dL
- ABSOLUTE BASOPHIL [3]: 0 CELLS/uL
- ABSOLUTE EOSINOPHIL [3]: 0 CELLS/uL
- ABSOLUTE LYMPHOCYTE [3]: 8315.67 CELLS/uL
- ABSOLUTE MONOCYTE [3]: 238.67 CELLS/uL
- ABSOLUTE SEGMENTED NEUTROPHIL [3]: 579 CELLS/uL
- BASOPHIL [3]: 0%
- EOSINOPHIL [3]: 0%
- ERYTHROCYTE COUNT [3]: 5.66 x10E6/uL
- HEMATOCRIT [3]: 34.93%
- HEMOGLOBIN [3]: 13.13 G/DL
- LEUKOCYTE COUNT [3]: 9.13 x10E3/uL
- LYMPHOCYTE [3]: 91%
- MEAN CORPUSCULAR HEMOGLOBIN [3]: 23.23 pg
- MEAN CORPUSCULAR HEMOGLOBIN CONCENTRATION [3]: 37.6 G/DL
- MEAN CORPUSCULAR VOLUME [3]: 61.73 fL
- MONOCYTE [3]: 2.33%
- NEUTROPHIL [3]: 6.67%
- NUCLEATED RED BLOOD CELLS [3]: 0 /100WBC
- PLATELET COUNT [3]: 1475 x10E3/uL
- ALANINE AMINOTRANSFERASE [3]: 56 u/L
- ALBUMIN [3]: 4.5 G/DL
- ALKALINE PHOSPHATASE [3]: 344 u/L
- ASPARTATE AMINOTRANSFERASE [3]: 88 u/L
- BLOOD UREA NITROGEN [3]: 12.67 mg/dL
- CARBON DIOXIDE [3]: 27.67 mmol/L
- CHLORIDE [3]: 106.33 MEQ/L
- CHOLESTEROL [3]: 80.33 mg/dL
- CREATINE PHOSPHOKINASE [3]: 209.33 u/L
- CREATININE [3]: 0.21 mg/dL
- GLUCOSE [3]: 138.33 mg/dL
- LACTATE DEHYDROGENASE [3]: 178 u/L
- LIPASE [3]: 8.67 u/L
- PHOSPHORUS [3]: 11.63 mg/dL
- POTASSIUM [3]: 6.42 MEQ/L
- SODIUM [3]: 150.7 MEQ/L
- TOTAL BILIRUBIN [3]: 0.2 mg/dL
- TOTAL PROTEIN [3]: 6.4 G/DL
- URIC ACID [3]: 1.2 mg/dL
- ABSOLUTE BASOPHIL [4]: 0 CELLS/uL
- ABSOLUTE EOSINOPHIL [4]: 55.33 CELLS/uL
- ABSOLUTE LYMPHOCYTE [4]: 13790.67 CELLS/uL
- ABSOLUTE MONOCYTE [4]: 0 CELLS/uL
- ABSOLUTE SEGMENTED NEUTROPHIL [4]: 1154 CELLS/uL
- BASOPHIL [4]: 0%
- EOSINOPHIL [4]: 0.33%
- ERYTHROCYTE COUNT [4]: 5.99 x10E6/uL
- HEMATOCRIT [4]: 37.5%
- HEMOGLOBIN [4]: 13.97 G/DL
- LEUKOCYTE COUNT [4]: 15 x10E3/uL
- LYMPHOCYTE [4]: 92%
- MEAN CORPUSCULAR HEMOGLOBIN [4]: 23.33 pg
- MEAN CORPUSCULAR HEMOGLOBIN CONCENTRATION [4]: 37.23 G/DL
- MEAN CORPUSCULAR VOLUME [4]: 62.67 fL
- MONOCYTE [4]: 0%
- NEUTROPHIL [4]: 7.67%
- NUCLEATED RED BLOOD CELLS [4]: 0 /100WBC
- PLATELET COUNT [4]: 1467.33 x10E3/uL
- ALANINE AMINOTRANSFERASE [4]: 59.33 u/L
- ALBUMIN [4]: 4.1 G/DL
- ALKALINE PHOSPHATASE [4]: 355.33 u/L
- ASPARTATE AMINOTRANSFERASE [4]: 81.33 u/L
- BLOOD UREA NITROGEN [4]: 15.33 mg/dL
- CARBON DIOXIDE [4]: 24.33 mmol/L
- CHLORIDE [4]: 106.33 MEQ/L
- CHOLESTEROL [4]: 65.33 mg/dL
- CREATINE PHOSPHOKINASE [4]: 150 u/L
- CREATININE [4]: 0.2 mg/dL
- GLUCOSE [4]: 176 mg/dL
- LACTATE DEHYDROGENASE [4]: 88.67 u/L
- LIPASE [4]: 8.33 u/L
- PHOSPHORUS [4]: 13.83 mg/dL
- POTASSIUM [4]: 6.2 MEQ/L
- SODIUM [4]: 146.57 MEQ/L
- TOTAL BILIRUBIN [4]: 0.17 mg/dL
- TOTAL PROTEIN [4]: 6.17 G/DL
- URIC ACID [4]: 2.43 mg/dL
